Source: patent publication US20240415814A1, “PHARMACEUTICAL COMPOSITION COMPRISING 1-(3-CYANO-1-ISOPROPYL-INDOL-5-YL)PYRAZOLE-4-CARBOXYLIC ACID” (LG CHEM, LTD., priority 2021, published 2024)
Like-named read-outs stand apart in the source and are kept apart here.

Assays:
Format in all cases: in vivo, human
[1] = Phase 2 clinical trial: analysis of TEAEs
Experimental: Selected patients gave written informed consent according to institutional and study procedures. After screening and wash-out processes (days 26 to 33 pre-dose), a total of 156 patients were finally enrolled, and each patient was randomly assigned to 5 groups of 50 mg, 100 mg and 200 mg dosing groups of the compound of Example 1, a placebo group, and a febuxostat group. Patients in each group self-administered 1 tablet of a combination drug (colchicine, 0.6 mg/day) for the prevention of gout flare along with the assigned investigational drug (50 mg, 100 mg and 200 mg doses of the compound of Example 1, placebo, and 40 mg of febuxostat group) orally, once every morning, at about the same time each day, with water, regardless of food.
When ULT is performed using a xanthine oxidase inhibitor compound, since there is a high possibility of gout flare as the tophi dissolves at the end of the bone during the initial treatment period, it was designed to be used in combination with colchicine for the purpose of inhibiting it. The drug was administered for 84 days by setting the first dosing day of the drug as day 1, and basic tests, serum uric acid concentration and the like were measured at clinic visits on 14 days (week 2), 28 days (week 4), 56 days (week 8), and 84 days (week 12) during the dosing period to determine whether TEAEs occurred. After the end of drug administration, a safety follow-up was performed for an additional 2 weeks (98 days, week 14).
Among all patient groups participating in the clinical trial, although the administration was stopped for 3 patients due to headache, gout flare in the left ankle, and liver dysfunction in the 100 mg dosing group of Example 1 and for 1 patient due to an increase in hepatic enzyme in the 200 mg dosing group, no significant treatment emergency adverse event (TEAE) was found in the remaining patient groups.

[2] = Pharmacokinetics according to renal function of patients; conditions: for AUC(0-t) / AUC / Cmax: both sexes, human, plasma, oral, 200 mg, 200 mg once daily, Day 7, plasma; for AUC(0-t): read-out: AUC0-t (AUC0-48 h), geometric LS mean; for AUC: read-out: AUCtau, geometric LS mean; for Cmax: read-out: Cmax, ss, geometric LS mean
Experimental: (§1) PK and PD of the compound of Example 1 were assessed under patient groups with various degrees of renal function. […] A total of 37 patients were classified into 4 groups as follows based on renal function according to eGFR which was calculated by MDRD formula: • Normal: eGFR≥90 mL/min/1.73 m^2, n=13 • Mild (mild renal function impairment): eGFR 60-less than 90 mL/min/1.73 m^2, n=8 • Moderate (moderate renal function impairment): eGFR 30-less than 60 mL/min/1.73 m^2, n=8 • Severe (severe renal function impairment): eGFR<30 mL/min/1.73 m^2 and not on hemodialysis, n=8
(§2) Blood and urine samples were collected before dosing and up to 24 or 48 hours after the final dosing for PK/PD assessment.
For the compound of Example 1, statistical analysis of pharmacokinetic parameters using an ANOVA model for the pharmacokinetic population is shown in Table 2 below. The ANOVA model was fitted to the log-transformed PK parameters, with renal function impairment group fitted as a fixed effect. Point estimates and 90% CIs for differences between the least square means on the log scale were exponentiated to express the results as ratios of geometric means and CIs on the original scale.

[3] = system: serum uric acid; assay: Pharmacodynamics (serum uric acid) according to renal function of patients; conditions: for AUEC0-24 of serum uric acid (baseline corrected), geometric LS mean / Cmean, 24 of serum uric acid (baseline corrected), geometric LS mean / Emax of serum uric acid (baseline corrected), geometric LS mean: 200 mg once daily, Day 7
Experimental: as §1, §2
An analysis of variance (ANOVA) model was fitted to the log-transformed baseline corrected PD parameters, with renal function impairment group fitted as a fixed effect. Point estimates and 90% CIs for differences between the least square means on the log scale were exponentiated to express the results as ratios of geometric means and CIs on the original scale.

[4] = normal renal function (control)

CC(C)n1cc(C#N)c2cc(-n3cc(C(=O)O)cn3)ccc21 [Example 1, 1-(3-cyano-1-isopropyl-indol-5-yl)pyrazol-4-carboxylic acid]
incidence of TEAEs ([1]; 50 mg, 100 mg and 200 mg groups versus placebo and febuxostat groups): showed no difference from the placebo group and the febuxostat group in the overall TEAE | patients for whom administration was stopped (headache, gout flare in the left ankle, liver dysfunction) ([1]; 100 mg dosing group): 3 patients | patients for whom administration was stopped (increase in hepatic enzyme) ([1]; 200 mg dosing group): 1 patient | AUC0-t, ratio of geometric LS means ([2]; Mild/Normal): 1.23 | AUCtau, ratio of geometric LS means ([2]; Mild/Normal): 1.23 | Cmax, ss, ratio of geometric LS means ([2]; Mild/Normal): 1.32 | AUC0-t, ratio of geometric LS means ([2]; Moderate/Normal): 1.19 | AUCtau, ratio of geometric LS means ([2]; Moderate/Normal): 1.17 | Cmax, ss, ratio of geometric LS means ([2]; Moderate/Normal): 1.15 | AUC0-t, ratio of geometric LS means ([2]; Severe/Normal): 1.16 | AUCtau, ratio of geometric LS means ([2]; Severe/Normal): 1.26 | Cmax, ss, ratio of geometric LS means ([2]; Severe/Normal): 0.885 | AUC(0-t) ([2]; mild impairment): 36.5 µg·h/mL | AUC ([2]; mild impairment): 38.1 µg·h/mL | Cmax ([2]; mild impairment): 7.46 µg/mL | AUC(0-t) ([2]; moderate impairment): 35.2 µg·h/mL | AUC ([2]; moderate impairment): 36.1 µg·h/mL | Cmax ([2]; moderate impairment): 6.49 µg/mL | AUC(0-t) [2, 4]: 29.7 µg·h/mL | AUC [2, 4]: 30.9 µg·h/mL | Cmax [2, 4]: 5.64 µg/mL | AUC(0-t) ([2]; severe impairment): 34.3 µg·h/mL | AUC ([2]; severe impairment): 38.9 µg·h/mL | Cmax ([2]; severe impairment): 4.99 µg/mL | AUEC0-24, ratio of geometric LS means ([3]; Mild/Normal): 0.980 | Cmean, 24, ratio of geometric LS means ([3]; Mild/Normal): 0.988 | Emax, ratio of geometric LS means ([3]; Mild/Normal): 0.979 | AUEC0-24, ratio of geometric LS means ([3]; Moderate/Normal): 1.02 | Cmean, 24, ratio of geometric LS means ([3]; Moderate/Normal): 1.03 | Emax, ratio of geometric LS means ([3]; Moderate/Normal): 1.02 | AUEC0-24, ratio of geometric LS means ([3]; Severe/Normal): 1.05 | Cmean, 24, ratio of geometric LS means ([3]; Severe/Normal): 1.03 | Emax, ratio of geometric LS means ([3]; Severe/Normal): 0.911 | GLSMRs for Cmean,24, Emax and AUEC0-24 of sUA ([3]; across all renal function impairment groups versus normal): approximately 1 | AUEC0-24 of serum uric acid (baseline corrected), geometric LS mean ([3]; mild impairment): 111 mg·h/dL | Cmean, 24 of serum uric acid (baseline corrected), geometric LS mean ([3]; mild impairment): 4.53 mg/dL | Emax of serum uric acid (baseline corrected), geometric LS mean ([3]; mild impairment): 4.43 mg/dL | AUEC0-24 of serum uric acid (baseline corrected), geometric LS mean ([3]; moderate impairment): 115 mg·h/dL | Cmean, 24 of serum uric acid (baseline corrected), geometric LS mean ([3]; moderate impairment): 4.74 mg/dL | Emax of serum uric acid (baseline corrected), geometric LS mean ([3]; moderate impairment): 4.63 mg/dL | AUEC0-24 of serum uric acid (baseline corrected), geometric LS mean [3, 4]: 113 mg·h/dL | Cmean, 24 of serum uric acid (baseline corrected), geometric LS mean [3, 4]: 4.59 mg/dL | Emax of serum uric acid (baseline corrected), geometric LS mean [3, 4]: 4.52 mg/dL | AUEC0-24 of serum uric acid (baseline corrected), geometric LS mean ([3]; severe impairment): 119 mg·h/dL | Cmean, 24 of serum uric acid (baseline corrected), geometric LS mean ([3]; severe impairment): 4.72 mg/dL | Emax of serum uric acid (baseline corrected), geometric LS mean ([3]; severe impairment): 4.12 mg/dL
